From patent US11207310B2 (PRILENIA NEUROTHERAPEUTICS LTD., priority 2016, dated 2021)
Like-named read-outs stand apart in the source and are kept apart here.

What was measured:
patients with HD [1] = conditions: for TFC Domestic Chores, Δ to placebo: 52 weeks, Early Stage HD (TFC≥7)
From the text: (§1) The TFC scale of the UHDRS is a standardized scale used to assess 5 functional domains associated with disability shown below (occupation, finances, domestic chores (e.g. laundry, washing dishes), activities of daily living, and care level). The TFC score has a range of 0-13 and is a well-established endpoint for trials aiming disease progression. […] The TFC score is accepted by regulators and often considered the most widely accepted tool for disease procession in HD patients. Additionally, TFC is considered the gold standard for measuring HD rate of functional decline. […] The floor and ceiling effects make TFC scores more sensitive to change in early stage HD than in late stage HD.
Domestic Chores: 0=unable, 1=impaired, 2=normal.

patients with HD [2] = system: patients with HD
From the text: (§2) The CAB may be used to detect symptomatic, “pro-cognitive” effects (6 months-1 year) and slowing rate of cognitive decline (>1 year). […] The CAB covers domains most impacted in HD, using tests with good psychometric properties. The following six sections describe the tests that are part of the CAB brief. • 1. Symbol Digit Modalities Test
The HVLT-R offers a brief assessment of verbal learning and memory (recognition and recall). […] Its use has been validated with brain-disordered populations (e.g., Alzheimer's disease, HD, amnestic disorders) as a measure of verbal learning and memory. […] The semantic categories differ across the 6 forms, but the forms are very similar in their psychometric properties. Raw scores are derived for Total Recall, Delayed Recall, Retention (% retained), and a Recognition Discrimination Index. The HVLT-R has high test-retest reliability, and its construct, concurrent, and discriminant validity have been well established. Raw scores are derived for Learning Trials 1-3 (i.e., Total Recall) and Trial 4 (e.g., Delayed Recall Trial). • 5. Paced Tapping test

patients with HD [3] = system: patients with HD; remark: listed apart in the source
Procedure: as §2
Psychomotor function is assessed in a Paced Tapping test (also known as PTAP). Participants tap on left and right mouse buttons, alternating between thumbs, at 3.0 Hz. They first listen to a tone presented at the desired tapping rate, and then begin tapping to the tone. After 11 taps with the tone, the repetition of the tone is discontinued, and participants attempt to continue tapping at the same rate until the end of the trial (31 taps later). • 6. One Touch Stockings of Cambridge (OTS)

patients with HD [4] = system: patients with HD; remark: listed apart in the source
From the text: There are six basic ADLs: eating, bathing, dressing, toileting, transferring (functional mobility) and continence. ADL is scored as follows: a patient requiring total care=0, a patient able to carry out gross tasks only=1, a patient having minimal impairment=2, a patient with no impairment (normal)=3.
as §1
Activities of Daily Living (ADL): 0=total care, 1=gross tasks only, 2=minimal impairment, 3=normal.

[5] = 45 mg bid, Week 26, Stage 1 BL TFC 11-13
[6] = 45 mg bid, Week 52, Stage 1 BL TFC 11-13
[7] = 67.5 mg bid, Week 26, Stage 1 BL TFC 11-13
[8] = 67.5 mg bid, Week 52, Stage 1 BL TFC 11-13
[9] = 90 mg bid, Week 26, Stage 1 BL TFC 11-13
[10] = 90 mg bid, Week 52, Stage 1 BL TFC 11-13
[11] = 112.5 mg bid, Week 26, Stage 1 BL TFC 11-13
[12] = 112.5 mg bid, Week 52, Stage 1 BL TFC 11-13

CCCN1CCC(c2cccc(S(C)(=O)=O)c2)CC1 [pridopidine, 4-[3-(methylsulfonyl)phenyl]-1-propyl-piperidine]
TFC Domestic Chores, Δ to placebo (patients with HD [1]; 45 mg bid): 0.24 | Change from baseline in UHDRS TFC Domestic Chores, Δ to Placebo (patients with HD [1]; 45 mg bid, Week 26, ALL): −0.01 | Change from baseline in UHDRS TFC Domestic Chores, Δ to Placebo (patients with HD [1]; [5]): 0.34 | Change from baseline in UHDRS TFC Domestic Chores, Δ to Placebo (patients with HD [1]; 45 mg bid, Week 52, ALL): 0.23 | Change from baseline in UHDRS TFC Domestic Chores, Δ to Placebo (patients with HD [1]; [6]): 0.49 | TFC Domestic Chores, Δ to placebo (patients with HD [1]; 67.5 mg bid): 0.09 | Change from baseline in UHDRS TFC Domestic Chores, Δ to Placebo (patients with HD [1]; 67.5 mg bid, Week 26, ALL): 0.02 | Change from baseline in UHDRS TFC Domestic Chores, Δ to Placebo (patients with HD [1]; [7]): 0.21 | Change from baseline in UHDRS TFC Domestic Chores, Δ to Placebo (patients with HD [1]; 67.5 mg bid, Week 52, ALL): −0.03 | Change from baseline in UHDRS TFC Domestic Chores, Δ to Placebo (patients with HD [1]; [8]): 0.05 | TFC Domestic Chores, Δ to placebo (patients with HD [1]; 90 mg bid): 0.16 | Change from baseline in UHDRS TFC Domestic Chores, Δ to Placebo (patients with HD [1]; 90 mg bid, Week 26, ALL): 0 | Change from baseline in UHDRS TFC Domestic Chores, Δ to Placebo (patients with HD [1]; [9]): 0.34 | Change from baseline in UHDRS TFC Domestic Chores, Δ to Placebo (patients with HD [1]; 90 mg bid, Week 52, ALL): 0.05 | Change from baseline in UHDRS TFC Domestic Chores, Δ to Placebo (patients with HD [1]; [10]): 0.1 | TFC Domestic Chores, Δ to placebo (patients with HD [1]; 112.5 mg bid): 0.04 | Change from baseline in UHDRS TFC Domestic Chores, Δ to Placebo (patients with HD [1]; 112.5 mg bid, Week 26, ALL): 0.06 | Change from baseline in UHDRS TFC Domestic Chores, Δ to Placebo (patients with HD [1]; [11]): 0.47 | Change from baseline in UHDRS TFC Domestic Chores, Δ to Placebo (patients with HD [1]; 112.5 mg bid, Week 52, ALL): 0.04 | Change from baseline in UHDRS TFC Domestic Chores, Δ to Placebo (patients with HD [1]; [12]): 0.23 | Δ to placebo: CAB HVLT-R score, change from baseline (patients with HD [2]; 45 mg bid, week 26): −0.53 | Δ to placebo: CAB HVLT-R score, change from baseline (patients with HD [2]; 45 mg bid, week 52): −2.21 | Δ to placebo: CAB HVLT-R score, change from baseline (patients with HD [2]; 67.5 mg bid, week 26): 0.15 | Δ to placebo: CAB HVLT-R score, change from baseline (patients with HD [2]; 67.5 mg bid, week 52): −2.74 | Δ to placebo: CAB HVLT-R score, change from baseline (patients with HD [2]; 90 mg bid, week 26): −0.73 | Δ to placebo: CAB HVLT-R score, change from baseline (patients with HD [2]; 90 mg bid, week 52): −1.07 | Δ to placebo: CAB HVLT-R score, change from baseline (patients with HD [2]; 112.5 mg bid, week 26): −0.47 | Δ to placebo: CAB HVLT-R score, change from baseline (patients with HD [2]; 112.5 mg bid, week 52): −2.19 | Paced Tapping at 3 Hz, change from baseline (patients with HD [3]; 45 mg bid, full analysis set, week 52): Positive findings indicating potential improvement from baseline | Δ to placebo: CAB Paced Tapping at 3 Hz, change from baseline (patients with HD [3]; 45 mg bid, week 26): 0.4736 | Δ to placebo: CAB Paced Tapping at 3 Hz, change from baseline (patients with HD [3]; 45 mg bid, week 52): 1.3234 | Δ to placebo: CAB Paced Tapping at 3 Hz, change from baseline (patients with HD [3]; 67.5 mg bid, week 26): −0.041 | Δ to placebo: CAB Paced Tapping at 3 Hz, change from baseline (patients with HD [3]; 67.5 mg bid, week 52): 0.3701 | Δ to placebo: CAB Paced Tapping at 3 Hz, change from baseline (patients with HD [3]; 90 mg bid, week 26): 0.1975 | Δ to placebo: CAB Paced Tapping at 3 Hz, change from baseline (patients with HD [3]; 90 mg bid, week 52): 0.2659 | Δ to placebo: CAB Paced Tapping at 3 Hz, change from baseline (patients with HD [3]; 112.5 mg bid, week 26): 0.9515 | Δ to placebo: CAB Paced Tapping at 3 Hz, change from baseline (patients with HD [3]; 112.5 mg bid, week 52): 0.1523 | Change from baseline in UHDRS TFC ADL, Δ to Placebo (patients with HD [4]; 45 mg bid, Week 26, ALL): 0.12 | UHDRS TFC ADL, change from baseline, Δ to placebo (patients with HD [4]; 45 mg bid, Week 26, BL TFC<7, p value 0.3596): −0.19 | UHDRS TFC ADL, change from baseline, Δ to placebo (patients with HD [4]; 45 mg bid, Week 26, BL TFC≥7, p value 0.0176): 0.24 | Change from baseline in UHDRS TFC ADL, Δ to Placebo (patients with HD [4]; [5]): 0.65 | Change from baseline in UHDRS TFC ADL, Δ to Placebo (patients with HD [4]; 45 mg bid, Week 52, ALL): 0.14 | UHDRS TFC ADL, change from baseline, Δ to placebo (patients with HD [4]; 45 mg bid, Week 52, BL TFC<7, p value 0.178): −0.33 | UHDRS TFC ADL, change from baseline, Wk 52 Δ to placebo (patients with HD [4]; 45 mg bid, Week 52, BL TFC≥7, p value 0.0019): 0.35 | Change from baseline in UHDRS TFC ADL, Δ to Placebo (patients with HD [4]; [6]): 0.62 | Change from baseline in UHDRS TFC ADL, Δ to Placebo (patients with HD [4]; 45 mg bid, Week 52, Stage 2 BL TFC 7-10): 0.27 | Change from baseline in UHDRS TFC ADL, Δ to Placebo (patients with HD [4]; 67.5 mg bid, Week 26, ALL): 0.09 | UHDRS TFC ADL, change from baseline, Δ to placebo (patients with HD [4]; 67.5 mg bid, Week 26, BL TFC<7, p value 0.8518): −0.04 | UHDRS TFC ADL, change from baseline, Δ to placebo (patients with HD [4]; 67.5 mg bid, Week 26, BL TFC≥7, p value 0.1132): 0.16 | Change from baseline in UHDRS TFC ADL, Δ to Placebo (patients with HD [4]; [7]): 0.34 | Change from baseline in UHDRS TFC ADL, Δ to Placebo (patients with HD [4]; 67.5 mg bid, Week 52, ALL): 0.03 | UHDRS TFC ADL, change from baseline, Δ to placebo (patients with HD [4]; 67.5 mg bid, Week 52, BL TFC<7, p value 0.0671): −0.4 | UHDRS TFC ADL, change from baseline, Wk 52 Δ to placebo (patients with HD [4]; 67.5 mg bid, Week 52, BL TFC≥7, p value 0.0598): 0.22 | Change from baseline in UHDRS TFC ADL, Δ to Placebo (patients with HD [4]; [8]): 0.21 | Change from baseline in UHDRS TFC ADL, Δ to Placebo (patients with HD [4]; 67.5 mg bid, Week 52, Stage 2 BL TFC 7-10): 0.31 | Change from baseline in UHDRS TFC ADL, Δ to Placebo (patients with HD [4]; 90 mg bid, Week 26, ALL): 0.14 | UHDRS TFC ADL, change from baseline, Δ to placebo (patients with HD [4]; 90 mg bid, Week 26, BL TFC<7, p value 0.3507): 0.18 | UHDRS TFC ADL, change from baseline, Δ to placebo (patients with HD [4]; 90 mg bid, Week 26, BL TFC≥7, p value 0.0526): 0.19 | Change from baseline in UHDRS TFC ADL, Δ to Placebo (patients with HD [4]; [9]): 0.58 | Change from baseline in UHDRS TFC ADL, Δ to Placebo (patients with HD [4]; 90 mg bid, Week 52, ALL): −0.01 | UHDRS TFC ADL, change from baseline, Δ to placebo (patients with HD [4]; 90 mg bid, Week 52, BL TFC<7, p value 0.073): −0.39 | UHDRS TFC ADL, change from baseline, Wk 52 Δ to placebo (patients with HD [4]; 90 mg bid, Week 52, BL TFC≥7, p value 0.0545): 0.21 | Change from baseline in UHDRS TFC ADL, Δ to Placebo (patients with HD [4]; [10]): 0.42 | Change from baseline in UHDRS TFC ADL, Δ to Placebo (patients with HD [4]; 90 mg bid, Week 52, Stage 2 BL TFC 7-10): 0.16 | Change from baseline in UHDRS TFC ADL, Δ to Placebo (patients with HD [4]; 112.5 mg bid, Week 26, ALL): 0.17 | UHDRS TFC ADL, change from baseline, Δ to placebo (patients with HD [4]; 112.5 mg bid, Week 26, BL TFC<7, p value 0.8438): −0.04 | UHDRS TFC ADL, change from baseline, Δ to placebo (patients with HD [4]; 112.5 mg bid, Week 26, BL TFC≥7, p value 0.0076): 0.27 | Change from baseline in UHDRS TFC ADL, Δ to Placebo (patients with HD [4]; [11]): 0.7 | Change from baseline in UHDRS TFC ADL, Δ to Placebo (patients with HD [4]; 112.5 mg bid, Week 52, ALL): 0.03 | UHDRS TFC ADL, change from baseline, Δ to placebo (patients with HD [4]; 112.5 mg bid, Week 52, BL TFC<7, p value 0.1393): −0.32 | UHDRS TFC ADL, change from baseline, Wk 52 Δ to placebo (patients with HD [4]; 112.5 mg bid, Week 52, BL TFC≥7, p value 0.0493): 0.23 | Change from baseline in UHDRS TFC ADL, Δ to Placebo (patients with HD [4]; [12]): 0.46 | Change from baseline in UHDRS TFC ADL, Δ to Placebo (patients with HD [4]; 112.5 mg bid, Week 52, Stage 2 BL TFC 7-10): 0.15
